Results from patent publication US20170095440A1, “METHOD OF TREATING CANINE PANCREATITIS” (CK9, LLC, priority 2014, published 2017).
Entries after “also recorded” stand apart in the source; their conditions may differ.

Tests used:
Beagle dogs = experiment: Multiple-dose tolerance study, oral capsule 3 times a day for 14 days; type: in vivo, dog
Experimental: The following parameters and end points were evaluated in the multiple-dose phase of this study: clinical signs, body weights, body weight changes, food consumption, electrocardiography, clinical pathology parameters (hematology, clinical chemistry, and urinalysis), and gross necropsy findings.
3 male and 3 female Beagle dogs were received from Marshall BioResources, North Rose, N.Y. The animals were examined and weighed on the day following receipt. The rising-dose phase animals were 6 months old and weighed 7.5 kg and 8.3 kg at initiation of dosing. The multiple-dose phase animals were 7 months old and weighed 7.4 kg and 7.6 kg at initiation of dosing.
For the multiple-dose phase, the test article was administered to the appropriate animals 3 times a day in an oral capsule from Days 1 to 14. The doses were administered 8 hours±30 minutes apart. The dose amount for each animal was based on the most recent body weight measurement. The first day of dosing was designated as Day 1.
Cage side observations were performed once daily, beginning during Week −1 and throughout the dosing period. During the dosing period, these observations were performed 1 to 3 hours post the first daily dose. The animals were removed from the cage and a detailed clinical observation was performed weekly, beginning during Week −1. Each animal was weighed on the day of randomization and Days 1, 4, 8, 11, and 15. A fasted weight was recorded on the day of necropsy. Food consumption was quantitatively measured for each animal daily, starting Week −1, throughout the dosing period, except for on the day of scheduled euthanasia.
Electrocardiogram (ECG) measurements were obtained from all animals using leads I, II, III, aVR, aVL, and aVF and a chart speed of 50 mm/second. The ECG measurements were obtained once on Day −1 (pretreatment) and Day 14 (approximately 3 hours post the first daily dose). Only lead II was evaluated by a board-certified veterinary cardiologist.
Blood was collected by venipuncture of the jugular vein. Urine was collected overnight by cage pan drainage. After collection, samples were transferred to the clinical pathology laboratory for processing. The animals were fasted overnight prior to scheduled clinical pathology sample collections, but had access to water ad libitum. Samples were collected according to Table 10.
Multiple-dose phase animals surviving until scheduled euthanasia were weighed, samples for evaluation of clinical pathology parameters were collected as specified above, and the animals were euthanized by sodium pentobarbital injection, followed by exsanguination. Animals were fasted (overnight) before their scheduled necropsy.
(§1) Multiple-dose phase animals were subjected to a complete necropsy examination, which included evaluation of the carcass and musculoskeletal system; all external surfaces and orifices; cranial cavity and external surfaces of the brain; and thoracic, abdominal, and pelvic cavities with their associated organs and tissues. Necropsy examinations were conducted under the supervision of a board-certified veterinary pathologist.

Han Wistar rats = experiment: Rising-dose tolerance study, single oral gavage; type: in vivo, rat
Experimental: The following parameters and end points were evaluated in the rising-dose phase of this study: clinical signs, body weights, body weight changes, food consumption, and gross necropsy findings.
A total of 18 male and 24 female Han Wistar rats were received from Charles River Laboratories, Raleigh, N.C. The animals were examined and weighed on the day following receipt. The rising-dose phase animals were 8 weeks old and weighed between 176 g and 255 g at initiation of dosing and the multiple-dose phase animals were 8 weeks old and weighed between 172 g and 259 g at initiation of dosing.
For the rising-dose study, the test article was administered to the appropriate animals as a single dose by oral gavage. At least a 3-day observation period was maintained before proceeding to the next dose level/group. The dose volume for each animal was based on the most recent body weight measurement. The doses were given using a syringe with attached gavage cannula. The first day of dosing for each group was designated as Study Day 1.
The animals were removed from the cage and a detailed clinical observation was performed on the day of randomization and Days 1 to 8; 1 to 3 hours postdose on the day of dosing. Each animal was weighed on the day of randomization and Days 1 to 8. Food consumption was quantitatively measured for each animal weekly, starting Day −3, throughout the study.
as §1, with “Rising-dose study” for “Multiple-dose phase”

rats = conditions: cited from earlier work
[1] = Day 15 vs pretest, 200 mg/kg/day, methanesulfonate, 200 mg/kg/day
[2] = 100, 550 or 1300 mg/kg single dose

SMILES: CN(C)C(=O)COC(=O)Cc1ccc(OC(=O)c2ccc(NC(=N)N)cc2)cc1 [Camostat Mesilate, N,N-dimethylcarbamoylmethyl-4-(4-guanidinobenzoyloxy)phenylacetate methanesulfonate]
- Survival (Beagle dogs; 200 mg/kg/day (66.7 mg/kg/dose 3 times a day), 14 days, 1 male and 1 female, methanesulfonate): No animals died; also recorded: All animals survived to scheduled euthanasia
- Body weight, overall conclusion (Beagle dogs; 200 mg/kg/day, 14 days): body weight loss
- Food consumption (Beagle dogs; 200 mg/kg/day, 14 days): no notable changes
- Gross necropsy findings (Beagle dogs; Day 15, 200 mg/kg/day): no gross necropsy findings
- Hematology parameters (Beagle dogs; [1]): no toxicologically meaningful changes; also recorded: no notable changes
- Urinalysis parameters (Beagle dogs; [1]): no toxicologically meaningful changes; also recorded: no notable changes
- High-dose level chosen from the tolerance study (Beagle dogs; dogs, oral, 3 times per day): 200 mg/kg/day
- Body weight change Days 1 to 15 (Beagle dogs; female, 200 mg/kg/day, 14 days): −2.7%
- Clinical observations (Beagle dogs; female, 200 mg/kg/day, 14 days): clear ocular discharge and single occurrences of vomitus and mucoid feces
- Clinical chemistry, potential test article-related changes (Beagle dogs; male and female, Day 15, 200 mg/kg/day, methanesulfonate, 200 mg/kg/day): increased creatinine and γ-glutamyl transferase; also recorded: increases in creatinine and γ-glutamyl transferase
- Body weight change Days 1 to 15 (Beagle dogs; male, 200 mg/kg/day, 14 days): −9.2%
- Clinical observations (Beagle dogs; male, 200 mg/kg/day, 14 days): thin appearance and a single occurrence of vomitus
- Clinical observation not considered test article related (Han Wistar rats; 550 mg/kg single dose): hair loss was observed in 1 animal
- Necropsy observation not considered test article related (Han Wistar rats; 1300 mg/kg single dose, male): Dark discoloration of the thymus was observed in one 1300 mg/kg male
- Clinical observation not considered a direct test article effect (Han Wistar rats; 1300 mg/kg single dose, possible aspiration during dosing): piloerection and abnormal breathing sounds were observed in 1 animal on Day 2
- Body weight Days 1 to 8 (Han Wistar rats; [2]): All animals gained weight
- Food consumption (Han Wistar rats; [2]): no significant changes in food consumption
- Gross necropsy findings (Han Wistar rats; [2]): no significant gross necropsy findings
- Test article-related clinical observations (Han Wistar rats; [2]): no test article-related clinical observations
- Survival (Han Wistar rats; single oral gavage 100, 550 or 1300 mg/kg, euthanasia Day 8, methanesulfonate): All animals survived to scheduled euthanasia; also recorded: No animals died
- Clinical signs up to 30 minutes postdose (rats; 1300 mg/kg/day): preening and a slight decrease in locomotor activity
- Body weight gain (rats; 550 and 1300 mg/kg/day): suppressed
- Clinical signs immediately after dosing (rats; all treated groups: 100, 235, 550, 1300 mg/kg/day, 90 and 180 days): hypersalivation
